“And” between values parts separate entries of the source, which are not always exact repeats. Identical values can stand only once. “Also recorded” adds a separate entry of the source. Like-named read-outs stand apart in the source and are kept apart here.
What was measured:
[1] = test system: Salmonella typhimurium TA100; experiment: Ames mutagenicity test (agar plate method), strain TA100; details: for Number of revertant colonies per plate, Mean / Number of revertant colonies per plate, NR 1 / Number of revertant colonies per plate, NR 2 / Number of revertant colonies per plate, NR3 / mutagenic/cytotoxic effect (in words): TA 100; for Number of revertant colonies per plate, NR 1: plate 1; for Number of revertant colonies per plate, NR 2: plate 2; for Number of revertant colonies per plate, NR3: plate 3
Source text: The revertant bacteria are detected by their ability to grow in the absence of the amino acid required by the parent test strain. The Ames test method was employed to investigate the potential of a chemical to induce a mutagenic effect in exposed organisms. Three different Salmonella typhimurium bacteria strains ([TA98 P450], [TA100], and [TA100—P450], which simulate metabolic activation) were used in order to account for discrepancies in the way similar organisms (bacteria) may respond to test solutions.
Salmonella typhimurium bacteria were cultured on a freshly prepared nutrient broth medium (Merck, Germany), and allowed to stand overnight. Bacterial growth was confirmed by visual turbidity inspection. […] All experiments were carried out in triplicate. The mutagenicity of the PCs was further classified based on fuzzy logic four-gridded indices (Table 2).
A substance is deemed mutagenic if its mutation rate is twice or more than that of the background.
Salmonella typhimurium bacterial strains TA 98 P450, TA 100, or TA100 P450 were exposed to an equimolar concentration (10 and 100 µg/L) ternary cocktail mixtures of the L, C, and S in the Ames test.

[2] = test system: Salmonella typhimurium TA100 P450; experiment: Ames mutagenicity test (agar plate method), strain TA100 P450; assay type: cell-based; details: for mutagenic/cytotoxic effect (in words) / Number of revertant colonies per plate, Mean: TA100 P450; for Number of revertant colonies per plate, NR 1 / Number of revertant colonies per plate, NR 2 / Number of revertant colonies per plate, NR3: TA 100 P450; for Number of revertant colonies per plate, NR 1: plate 1; for Number of revertant colonies per plate, NR 2: plate 2; for Number of revertant colonies per plate, NR3: plate 3
Method: (§1) Bacterial growth was confirmed by visual turbidity inspection. […] All experiments were carried out in triplicate.

[3] = test system: root tip meristem cells of Allium cepa; experiment: Allium cepa root tip microscopic examination (chromosomal aberrations); assay type: cell-based; details: 100 µg/L; for chromosomal aberrations observed in root tip meristem: light microscopy
Method: (§2) Whole-onions test specimens were grown at room temperature (in triplicate). The onions were initially grown for 2 days in tap water. Prior to growing them in tap water, the ring of the root, the primordia at the bottom of the onion bulb, was scraped with a sterile surgical blade to remove all existing root growth. After 2 days of tap water exposure, the lengths of the root fibers of each onion were measured and recorded. This was followed by exposure to the test solutions for another 2 days (tap water was used as the control). […] At the end of the exposure, the onion roots were cut 3 cm from the tip and placed in Carnoy’s fixative solution ([…] (Merck, Germany)) until further microscopic analysis.
This was followed by washing the root tips in distilled water, after which they were stained using Feulgen stain for 2–3 min. The stained root tips were then rinsed in distilled water, transferred onto clean glass microscope slides, and counter-stained with acetocarmine. […] The squashed onion root tips were thereafter imaged using a LEICA DM-750 light microscope at × 400 and × 1000 magnifications.
Microscopic evaluation of Allium cepa cells during mitosis was conducted to ascertain the impacts the L, C, and S test samples (lone and mixtures) will have on the genetic materials of the onion roots at cellular levels.

[4] = test system: Salmonella typhimurium TA98 P450; assay type: cell-based; details: for Number of revertant colonies per plate, NR 1: plate 1; for Number of revertant colonies per plate, NR 2: plate 2; for Number of revertant colonies per plate, NR3: plate 3
Method: as §1

Daphnia magna = details: for Mean mortality (n = 20): five daphnids per well, four replicates
Allium cepa = Allium cepa root length assay (phytotoxic inhibition of root growth); assay type: in vivo
Method: as §2
The test APCs and their mixtures in different combinations were investigated for their phytotoxic characteristics at 10 µg/L and 100 µg/L concentrations, using A. cepa bioassays. The root length assay relies on evaluating the root length of A. cepa as an indicator endpoint to assess the susceptibility of plants exposed to xenobiotics by evaluating physical impacts on their root growth. The ratio between the root length (mm) (RRL) after and before exposure to test solutions ( ^RLAERLBE ) was used as indices for the APCs’ phytotoxicity.

## O=C(O)c1cn(C2CC2)c2cc(N3CCNCC3)c(F)cc2c1=O [Ciprofloxacin, ciprofloxacin]
[1]; 10 µg/L
  Number of revertant colonies per plate, Mean: 140
  Number of revertant colonies per plate, NR 1: 140
  Number of revertant colonies per plate, NR 2: 170
  Number of revertant colonies per plate, NR3: 110
[1]; 100 µg/L
  Number of revertant colonies per plate, Mean: 140
  mutagenic/cytotoxic effect (in words): did not individually exert cytotoxicity
  Number of revertant colonies per plate, NR 1: 130
  Number of revertant colonies per plate, NR 2: 140
  Number of revertant colonies per plate, NR3: 150
[2]; 10 µg/L
  mutagenic/cytotoxic effect (in words): did not exert either mutagenic or cytotoxic effects
[2]; 100 µg/L
  mutagenic/cytotoxic effect (in words): did not individually exert cytotoxicity
[3]
  chromosomal aberrations observed in root tip meristem: uncoiling chromosome/irregular prophase
[4]; 10 µg/L
  mutagenic/cytotoxic effect (in words): did not exert either mutagenic or cytotoxic effects
[4]; 100 µg/L
  mutagenic/cytotoxic effect (in words): to a much lesser extent mutagenic; also recorded: did not individually exert cytotoxicity; also recorded: some level of mutagenic activities
Daphnia magna; 10 µg/L, 24 h
  Mean % mortality: 10%
  Mean mortality (n = 20): 0.50 ± 0.58
Daphnia magna; 10 µg/L, 48 h
  Mean % mortality: 55%
  Mean mortality (n = 20): 2.75 ± 0.50
Daphnia magna; 100 µg/L, 24 h
  Mean % mortality: 50%
  Mean mortality (n = 20): 2.5 ± 1.73
Daphnia magna; 100 µg/L, 48 h
  Mean % mortality: 75%
  Mean mortality (n = 20): 3.75 ± 1.26

## Nc1ccn([C@@H]2CS[C@H](CO)O2)c(=O)n1 [Lamivudine, lamivudine]
[1]
  Ames test (mutagenicity) TA 100: b (key: Toxic (a) x<0.5; No mutagenicity (b) x≥0.5≤1.5; Mutagenic to a lesser extent (c) x>1.5<2.0; Significantly mutagenic (d) x≥2.0)
[1]; 10 µg/L
  Number of revertant colonies per plate, Mean: 160
  mutagenic/cytotoxic effect (in words): did not exert either mutagenic or cytotoxic effects
  Number of revertant colonies per plate, NR 1: 190
  Number of revertant colonies per plate, NR 2: 150
  Number of revertant colonies per plate, NR3: 140
[1]; 100 µg/L
  Number of revertant colonies per plate, Mean: 163
  Number of revertant colonies per plate, NR 1: 180
  Number of revertant colonies per plate, NR 2: 150
  Number of revertant colonies per plate, NR3: 160
[2]; 10 µg/L
  Number of revertant colonies per plate, Mean: 233
  mutagenic/cytotoxic effect (in words): did not exert either mutagenic or cytotoxic effects
  Number of revertant colonies per plate, NR 1: 200
  Number of revertant colonies per plate, NR 2: 200
  Number of revertant colonies per plate, NR3: 300
[2]; 100 µg/L
  Number of revertant colonies per plate, Mean: 300
  Number of revertant colonies per plate, NR 1: 210
  Number of revertant colonies per plate, NR 2: 310
  Number of revertant colonies per plate, NR3: 380
Allium cepa; 10 µg/L
  A. cepa root exposure R.L: -
Allium cepa; 100 µg/L
  A. cepa root exposure R.L: +
[3]
  A. cepa root exposure C.A (chromosomal aberration): +
  chromosomal aberrations observed in root tip meristem: irregular prophase and metaphase
[4]; 10 µg/L
  Number of revertant colonies per plate, Mean: 16
  mutagenic/cytotoxic effect (in words): did not exert either mutagenic or cytotoxic effects
  Number of revertant colonies per plate, NR 1: 13
  Number of revertant colonies per plate, NR 2: 23
  Number of revertant colonies per plate, NR3: 13
[4]; 100 µg/L
  Number of revertant colonies per plate, Mean: 18
  mutagenic/cytotoxic effect (in words): to a much lesser extent mutagenic; also recorded: some level of mutagenic activities
  Number of revertant colonies per plate, NR 1: 20
  Number of revertant colonies per plate, NR 2: 15
  Number of revertant colonies per plate, NR3: 18
Daphnia magna; 10 µg/L, 24 h
  Mean % mortality: 10%
  Mean mortality (n = 20): 0.50 ± 0.60
Daphnia magna; 10 µg/L, 48 h
  Mean % mortality: 45%
  Mean mortality (n = 20): 2.30 ± 1.00
Daphnia magna; 100 µg/L, 24 h
  Mean % mortality: 85%
  Mean mortality (n = 20): 4.30 ± 1.00
Daphnia magna; 100 µg/L, 48 h
  Mean % mortality: 100%
  Mean mortality (n = 20): 5.00 ± 0.00
Daphnia magna; 24 h
  LD50 as log concentration: 1.533 log conc. (ppb)
Daphnia magna; 48 h
  LD50 as log concentration: 1.091 log conc. (ppb) and 1.09 log conc. (ppb)
Daphnia magna; toxic unit of the constituent in the LCS mixture, 24 h
  Toxic unit 24 hrs: 1.12
Daphnia magna; toxic unit of the constituent in the LCS mixture, 48 h
  Toxic unit 48 hrs: 1.93

## Cc1cc(NS(=O)(=O)c2ccc(N)cc2)no1 [Sulfamethoxazole, sulfamethoxazole]
[1]; 10 µg/L
  Number of revertant colonies per plate, Mean: 123
  Number of revertant colonies per plate, NR 1: 100
  Number of revertant colonies per plate, NR 2: 150
  Number of revertant colonies per plate, NR3: 120
[1]; 100 µg/L
  Number of revertant colonies per plate, Mean: 117
  Number of revertant colonies per plate, NR 1: 110
  Number of revertant colonies per plate, NR 2: 110
  Number of revertant colonies per plate, NR3: 130
[3]
  chromosomal aberrations observed in root tip meristem: vagrant chromosome in anaphase and alignment anaphase
Daphnia magna; 10 µg/L, 24 h
  Mean % mortality: 15%
  Mean mortality (n = 20): 0.75 ± 0.50
Daphnia magna; 10 µg/L, 48 h
  Mean % mortality: 30%
  Mean mortality (n = 20): 1.50 ± 1.73
Daphnia magna; 100 µg/L, 24 h
  Mean % mortality: 50%
  Mean mortality (n = 20): 2.50 ± 0.58
Daphnia magna; 100 µg/L, 48 h
  Mean % mortality: 95%
  Mean mortality (n = 20): 4.75 ± 0.50

Reference: article PMC10656311, “Evaluation of the probable synergistic toxicity of selected potentiated antiretroviral and antibiotics on some aquatic biomarker organisms” (Environmental Monitoring and Assessment, 2023)
